Patent publication US20260041770A1, “CELL MEMBRANE-ATTACHED HYALURONIC ACID-CD44 SPECIFIC BINDING REACTION POLYMER COMPOUND TO ENHANCE THE IMMUNE-ANTICANCER FUNCTION OF NATURAL KILLER CELLS” (DONGGUK UNIVERSITY INDUSTRY-ACADEMIC COOPERATION FOUNDATION, priority 2023, published 2026)

System: NK92-mi NK cells
Assay: NK cell surface modification efficiency (fluorescence intensity, cell coating efficacy)
Assay type: cell-based
Details: polymer 1.0 mg/mL, 30 minutes at room temperature
Method: A polymer compound (HA-PEG-DSPE) was dissolved in MEM alpha at a concentration of 1.0 mg/mL, and 5×10^5 NK92-mi NK cells were evenly mixed with 100 μL of solution. The surface of NK cell was modified (HA-PEG-DSPE bound to NK cell) at room temperature for 30 minutes and then washed twice with MEM alpha. Cells were then lysed with 250 μL of RIPA buffer and stored at 4° C. for 30 minutes. Finally, 250 μL of distilled water was added, diluted, and transferred to 96-well to measure fluorescence intensity at 480/535 nm.

PEG2000
cell coating efficacy of NK cell: higher coating efficacy (cell coating efficacy, ng/10^5 cells) of NK cell compared to the polymer compound using PEG600 and PEG5000
fluorescence intensity on NK cell: strong fluorescence intensity is measured on the surface of NK cell

PEG600
fluorescence intensity on NK cell: fluorescence intensity is not substantially measured
